According to patent US20040072907A1, “Antipicornaviral compounds, compositions containing them, and methods for their use” (priority 1997, published 2004):
Like-named read-outs stand apart in the source and are kept apart here.

What was measured:
HI-HeLa cells = experiment: Cytotoxicity in mock-infected HI-HeLa cells (XTT, antirhinoviral assay); format: cell-based; conditions: mock-infected HI-HeLa cells, read-out: CC50
Procedure: (§1) In the Cell Protection Assay, the ability of compounds to protect cells against HRV infection was measured by the XTT dye reduction method. This method is described in Weislow, O. S., Kiser, R., Fine, D. L., Bader, J., Shoemaker, R. H., Boyd, M. R., J. Natl. Cancer Inst. 1989, 81, 577-586, the disclosure of which is incorporated herein by reference.
(§2) Infected or mock-infected cells were resuspended at 8×10^5 cells per mL and incubated with appropriate concentrations of compounds of formula I. Two days later, XTT/PMS was added to test plates, and the amount of formazan produced was quantified spectrophotometrically at 450/650 nm. […] The therapeutic index (TI) was calculated by dividing the CC50 by the EC50.
HRV stocks were propagated, and viral assays were performed in HI-HeLa cells (ATCC). Cells were grown in Minimal Essential Medium, available from Life Technologies, with 10% fetal bovine serum.

HRV serotype 1A = experiment: Antirhinoviral HI-HeLa cell culture assay (XTT cell protection), HRV-1A; format: cell-based, human rhinovirus; conditions: HI-HeLa cells
Procedure: as §1, §2
(§3) All strains of human rhinovirus (HRV) for use in this assay were purchased from American Type Culture Collection (ATCC) except for HRV serotype-14, which was produced from the infectious cDNA clone constructed and supplied to Applicants by Dr. Robert Rueckert at the Institute for Molecular Virology, University of Wisconsin, Madison, Wis. HRV stocks were propagated, and viral assays were performed in HI-HeLa cells (ATCC). Cells were grown in Minimal Essential Medium, available from Life Technologies, with 10% fetal bovine serum.
(§4) The compounds were tested against control compounds WIN 51711, WIN 52084, and WIN 54954, all obtained from Sterling-Winthrop Pharmaceuticals, and control compound Pirodavir, obtained from Janssen Pharmaceuticals. Antiviral data obtained for the test compounds are shown in Table 2 where all data are for HRV serotype-14 unless otherwise noted in parentheses.

HRV serotype 89 = experiment: Antirhinoviral HI-HeLa cell culture assay (XTT cell protection), HRV-89; format: cell-based, human rhinovirus; conditions: HRV serotype 89, HI-HeLa cells
Procedure: as §1, §2, §3, §4

HRV serotype-14 = experiment: Antirhinoviral HI-HeLa cell culture assay (XTT cell protection), HRV-14; format: cell-based, human rhinovirus; conditions: HRV serotype-14, HI-HeLa cells, m.o.i. 0.13, two days, XTT; read-out: EC50
Procedure: as §1, §2, §3, §4

HRV serotype 16 = experiment: Antirhinoviral HI-HeLa cell culture assay (XTT cell protection), HRV-16; format: cell-based, human rhinovirus; conditions: HRV serotype 16, HI-HeLa cells
Procedure: as §1, §2, §3, §4

HRV serotype 39 = experiment: Antirhinoviral HI-HeLa cell culture assay (XTT cell protection), HRV-39; format: cell-based, human rhinovirus; conditions: HRV serotype 39, HI-HeLa cells
Procedure: as §1, §2, §3, §4

[1] = molecular target: T1, Recombinant Rhinovirus 3C protease serotype 14 (Human rhinovirus 14, UniProt P03303); experiment: biochemical
T1 construct: Recombinant Rhinovirus 3C proteases from serotypes 14, 16, and 2; made in house
T1 sequence (P03303 1538-1719): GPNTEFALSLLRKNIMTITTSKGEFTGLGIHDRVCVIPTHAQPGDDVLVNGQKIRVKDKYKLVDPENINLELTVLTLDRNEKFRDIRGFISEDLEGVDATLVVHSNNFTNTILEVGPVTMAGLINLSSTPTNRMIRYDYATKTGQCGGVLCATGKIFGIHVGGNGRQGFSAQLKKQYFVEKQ

[2] = molecular target: Recombinant Rhinovirus 3C protease serotype 16 (Human rhinovirus 16, UniProt Q82122); format: biochemical
Sequence of Recombinant Rhinovirus 3C protease serotype 16 (Q82122 1511-1693): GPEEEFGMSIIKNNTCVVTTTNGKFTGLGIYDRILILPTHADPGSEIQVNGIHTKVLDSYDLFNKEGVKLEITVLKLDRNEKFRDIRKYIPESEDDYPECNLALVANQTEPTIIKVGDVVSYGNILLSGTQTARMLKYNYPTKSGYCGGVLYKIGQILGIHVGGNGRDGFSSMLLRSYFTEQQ
Procedure: Stock solutions (50 mM, in DMSO) of various compounds were prepared; dilutions were in the same solvent. […] Assays contained 2% DMSO, 50 mM tris pH 7.6, 1 mM EDTA, a compound at the indicated concentrations, approximately 1 μM substrate, and 50-100 nM protease. […] The kobs/I values were obtained from reactions initiated by addition of enzyme rather than substrate. RVP activity is measured in the fluorescence resonance energy transfer assay. […] In the uncleavaed peptide, the EDANS fluorescence was quenched by the proximal DABCYL moiety. When the peptide was cleaved, the quenching was relieved, and activity was measured as an increase in fluorescence signal.
In the above table, all data are for RVP serotype-14 unless otherwise noted in parentheses. All strains of human rhinovirus (HRV) were purchased from American Type Culture Collection (ATCC) except for serotype 14, which was produced from the infectious cDNA clone constructed and supplied to Applicants by Dr. Robert Rueckert at the Institute for Molecular Virology, University of Wisconsin, Madison, Wis. The column designated INHIB represents the percent inhibition at 10 minute preincubation with 50 nM RVP prior to addition of substrate. The data in the column designated kobs/I was measured from progress curves enzyme start experiments.

[3] = molecular target: T2, Recombinant Rhinovirus 3C protease serotype 2 (Human rhinovirus 2, UniProt P04936); format: biochemical
T2 construct: Recombinant Rhinovirus 3C proteases from serotypes 14, 16, and 2; made in house
T2 sequence (P04936 1508-1690): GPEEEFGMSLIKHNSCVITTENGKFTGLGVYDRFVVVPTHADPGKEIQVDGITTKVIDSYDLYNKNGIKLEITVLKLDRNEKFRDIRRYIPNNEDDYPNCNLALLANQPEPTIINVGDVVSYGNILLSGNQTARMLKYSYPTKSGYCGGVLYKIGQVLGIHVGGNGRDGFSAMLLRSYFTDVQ

HRV serotype 10 = experiment: Antirhinoviral HI-HeLa cell culture assay (XTT cell protection), HRV-10; format: cell-based, human rhinovirus; conditions: HRV serotype 10, HI-HeLa cells
Procedure: as §1, §2, §3, §4

With `CCOC(=O)/C=C/C(CCC(N)=O)NC(=O)C(CC(=O)C(NC(=O)SC1CCCC1)C(C)C)Cc1ccc(F)cc1` (stereo not shown) [Compound 14] the CC50 (HI-HeLa cells; line for HRV serotype 1A) was greater than 10000 nM, the CC50 (HI-HeLa cells; line for HRV serotype 2) was greater than 10000 nM and the CC50 (HI-HeLa cells; line for HRV serotype 10) was greater than 10000 nM. It also gave a CC50 (HI-HeLa cells; line for HRV serotype 16) greater than 10000 nM, a CC50 (HI-HeLa cells; line for HRV serotype 39) greater than 10000 nM and a CC50 (HI-HeLa cells; line for HRV serotype 89) greater than 10000 nM. The CC50 (HI-HeLa cells; line for HRV serotype-14) was greater than 10000 nM, the EC50 (HRV serotype 1A) was 170 nM and the EC50 (HRV serotype 89) was 80 nM. For the same compound, the EC50 (HRV serotype-14) was 20 nM.

`CCOC(=O)/C=C/C(CCC(N)=O)NC(=O)C(CC(=O)C(NC(=O)SC1CCCC1)C(C)(C)C)Cc1ccccc1` [Compound 22, Ethyl-3-(CyPentylSCO-L-tert-LeuΨ[COCH2]-L-Phe-L-Gln)-E-Propenoate] gave an EC50 (HRV serotype 16) of 400 nM, a CC50 (HI-HeLa cells; line for HRV serotype 1A) greater than 32000 nM and a CC50 (HI-HeLa cells; line for HRV serotype 2) greater than 32000 nM. The CC50 (HI-HeLa cells; line for HRV serotype 10) was greater than 32000 nM, the CC50 (HI-HeLa cells; line for HRV serotype 16) was greater than 32000 nM and the CC50 (HI-HeLa cells; line for HRV serotype 39) was greater than 32000 nM. The CC50 (HI-HeLa cells; line for HRV serotype 89) was greater than 32000 nM, the CC50 (HI-HeLa cells; line for HRV serotype-14) was greater than 32000 nM and the EC50 (HRV serotype 1A) was 430 nM. It also gave an EC50 (HRV serotype 39) of 400 nM and an EC50 (HRV serotype-14) of 50 nM.

In the case of `CCOC(=O)/C=C/C(CCC(N)=O)NC(=O)C(CC(=O)C(CC(C)C)NC(=O)OCc1ccccc1)Cc1ccccc1` [Compound 1, Ethyl-3-(CBZ-L-LeuΨ[COCH2]-L-Phe-L-Gln)-E-Propenoate], the CC50 (HI-HeLa cells; line for HRV serotype-14) is reported as greater than 320000 nM.

With `CCOC(=O)/C=C/[C@H](CCC(N)=O)NC(=O)[C@@H](CC(=O)[C@@H](NC(=O)SCC)C(C)C)Cc1ccc(C)cc1` [Compound 10, Ethyl-3-(EtSCO-L-ValΨ[COCH2]-L-(p-CH3)Phe-L-Gln)-E-Propenoate] the CC50 (HI-HeLa cells; line for HRV serotype 2) was greater than 1000 nM and the kobs/I [1] was 440,000 M^−1sec^−1.

For `CCOC(=O)/C=C/[C@H](CCC(N)=O)NC(=O)[C@@H](CC(=O)[C@H](CC(C)C)NC(=O)SC1CCCC1)Cc1ccccc1` [Compound 8, Ethyl-3-(CyPentylSCO-L-LeuΨ[COCH2]-L-Phe-L-Gln)-E-Propenoate], the kobs/I [2] was 14,200 M^−1sec^−1, the kobs/I [1] was 55,700 M^−1sec^−1 and the kobs/I [3] was 7,000 M^−1sec^−1. The kobs/I ([3]; RVP serotype 2, progress curves, enzyme start experiments) was 7,000 M^−1sec^−1.

In the case of `CCOC(=O)/C=C/C(CCC(N)=O)NC(=O)C(CC(=O)C(Cc1ccccc1)NC(=O)SC1CCCC1)Cc1ccc(C)cc1` [Compound 12, Ethyl-3-(CyPentylSCO-L-PheΨ[COCH2]-L-(p-CH3)Phe-L-Gln)-E-Propenoate], the CC50 (HI-HeLa cells; line for HRV serotype-14) is reported as greater than 1000 nM, the kobs/I ([1]; RVP serotype-14, progress curves, enzyme start experiments) is reported as 404,000 M^−1sec^−1 and the EC50 (HRV serotype-14) is reported as 140 nM.

For `CCOC(=O)/C=C/[C@H](CCC(N)=O)NC(=O)[C@@H](CC(=O)[C@H](CC(C)C)NC(=O)SCC)Cc1ccccc1` [Compound 2, Ethyl-3-(EtSCO-L-LeuΨ[COCH2]-L-Phe-L-Gln)-E-Propenoate], the CC50 (HI-HeLa cells; line for HRV serotype 2) was greater than 320000 nM, the kobs/I [2] was 10,410 M^−1sec^−1 and the kobs/I [1] was 47,000 M^−1sec^−1. The kobs/I [3] was 4,600 M^−1sec^−1.

`CCOC(=O)/C=C/C(CCC(N)=O)NC(=O)C(CC(=O)C(NC(=O)SC1CCCC1)C(C)C)Cc1ccc(C(F)(F)F)cc1` [Compound 16, Ethyl-3-(CyPentylSCO-L-ValΨ[COCH2]-L-(p-CF3)Phe-L-Gln)-E-Propenoate] gave a CC50 (HI-HeLa cells; line for HRV serotype 1A) greater than 3000 nM, a CC50 (HI-HeLa cells; line for HRV serotype 2) greater than 3000 nM and a CC50 (HI-HeLa cells; line for HRV serotype 10) greater than 3000 nM. For the same compound, the CC50 (HI-HeLa cells; line for HRV serotype 16) was greater than 3000 nM, the CC50 (HI-HeLa cells; line for HRV serotype 39) was greater than 3000 nM and the CC50 (HI-HeLa cells; line for HRV serotype 89) was greater than 3000 nM. It also gave a CC50 (HI-HeLa cells; line for HRV serotype-14) greater than 3000 nM, an EC50 (HRV serotype 89) of 80 nM and an EC50 (HRV serotype 39) of 200 nM. The EC50 (HRV serotype 10) was 150 nM and the EC50 (HRV serotype-14) was 50 nM.

In the case of `CCOC(=O)/C=C/[C@H](CCC(N)=O)NC(=O)[C@@H](CC(=O)[C@@H](NC(=O)SCC)C(C)C)Cc1ccccc1` [Compound 4, Ethyl-3-(EtSCO-L-ValΨ[COCH2]-L-Phe-L-Gln)-E-Propenoate], the CC50 (HI-HeLa cells; line for HRV serotype-14) is reported as greater than 320000 nM, the kobs/I [2] is reported as 34,600 M^−1sec^−1 and the kobs/I [1] is reported as 180,000 M^−1sec^−1. For the same compound, the kobs/I [3] was 17,800 M^−1sec^−1.

`Cc1cc(CCCCCCCOc2ccc(C3=N[C@@H](C)CO3)cc2)on1` [WIN 52084, reference compound] showed a CC50 (HI-HeLa cells; line for HRV serotype-14) greater than 10000 nM and an EC50 (HRV serotype-14) of 70 nM.
